In patent US20260256742A1, “ANDROGEN RECEPTOR ANTAGONISTS FOR THE TREATMENT OF PATIENTS WITH BIOCHEMICAL RECURRENCE OF HORMONE SENSITIVE PROSTATE CANCER” (BAYER CONSUMER CARE AG, priority 2023, published 2026):
Entries after “also recorded” stand apart in the source; their conditions may differ.

Tests used:
[1] = target: T1, organic anion-transporting polypeptide (OATP)1B1 (Homo sapiens, UniProt Q9Y6L6); conditions: in vitro; cited from earlier work
T1 sequence (Q9Y6L6 1-691): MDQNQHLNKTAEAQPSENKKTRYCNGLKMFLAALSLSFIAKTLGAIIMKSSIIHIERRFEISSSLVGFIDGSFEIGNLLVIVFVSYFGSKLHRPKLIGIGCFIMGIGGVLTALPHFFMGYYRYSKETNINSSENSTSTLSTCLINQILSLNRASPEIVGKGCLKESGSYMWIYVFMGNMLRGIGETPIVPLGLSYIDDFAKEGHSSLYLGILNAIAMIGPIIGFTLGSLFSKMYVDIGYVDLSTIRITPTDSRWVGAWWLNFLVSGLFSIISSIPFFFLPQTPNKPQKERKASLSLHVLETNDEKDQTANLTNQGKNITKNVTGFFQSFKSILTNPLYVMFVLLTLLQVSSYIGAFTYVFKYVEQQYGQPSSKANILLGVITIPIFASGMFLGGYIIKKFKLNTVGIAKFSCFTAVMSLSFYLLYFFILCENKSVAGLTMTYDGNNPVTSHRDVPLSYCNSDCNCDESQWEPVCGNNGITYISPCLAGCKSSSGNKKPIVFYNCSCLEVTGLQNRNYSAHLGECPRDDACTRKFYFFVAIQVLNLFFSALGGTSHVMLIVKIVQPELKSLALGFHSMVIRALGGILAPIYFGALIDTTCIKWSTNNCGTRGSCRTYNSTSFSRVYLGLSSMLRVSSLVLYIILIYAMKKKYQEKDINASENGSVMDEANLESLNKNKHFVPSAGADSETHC

CYP2B6 = conditions: in vitro; cited from earlier work
[2] = in vitro and in vivo; cited from earlier work
P-glycoprotein (P-gp) = P-glycoprotein (P-gp) (Homo sapiens, UniProt P08183); conditions: cited from earlier work
[3] = test system: prostate cancer cells rendered castration resistant via overexpression of AR; conditions: cited from earlier work
[4] = all investigated species including man; cited from earlier work
AR = conditions: cited from earlier work
nmCRPC = conditions: in combination with ADT, patients with nmCRPC; cited from earlier work
[5] = test system: human prostate cancer xenograft models; conditions: cited from earlier work
[6] = cited from earlier work
[7] = target: T2, organic anion transporter (OAT)3 (Homo sapiens, UniProt Q8TCC7); conditions: in vitro; cited from earlier work
T2 sequence (Q8TCC7 1-542): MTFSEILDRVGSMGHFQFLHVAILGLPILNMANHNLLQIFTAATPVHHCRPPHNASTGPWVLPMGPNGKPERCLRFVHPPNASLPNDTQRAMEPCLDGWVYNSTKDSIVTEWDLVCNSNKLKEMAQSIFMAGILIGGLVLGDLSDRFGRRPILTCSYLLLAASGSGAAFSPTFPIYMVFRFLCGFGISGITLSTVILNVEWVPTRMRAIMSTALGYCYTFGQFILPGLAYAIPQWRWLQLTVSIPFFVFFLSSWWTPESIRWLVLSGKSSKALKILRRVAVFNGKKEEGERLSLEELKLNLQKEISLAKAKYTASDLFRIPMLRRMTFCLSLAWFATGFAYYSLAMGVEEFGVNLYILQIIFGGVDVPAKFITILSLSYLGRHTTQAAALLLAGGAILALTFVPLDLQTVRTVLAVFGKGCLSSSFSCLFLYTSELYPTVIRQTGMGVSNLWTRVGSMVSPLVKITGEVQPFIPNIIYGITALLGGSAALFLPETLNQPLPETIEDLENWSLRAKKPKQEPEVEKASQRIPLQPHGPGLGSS

[8] = target: T3, breast cancer resistance protein (BCRP) (Homo sapiens, UniProt Q9UNQ0); conditions: cited from earlier work
T3 sequence (Q9UNQ0 1-655): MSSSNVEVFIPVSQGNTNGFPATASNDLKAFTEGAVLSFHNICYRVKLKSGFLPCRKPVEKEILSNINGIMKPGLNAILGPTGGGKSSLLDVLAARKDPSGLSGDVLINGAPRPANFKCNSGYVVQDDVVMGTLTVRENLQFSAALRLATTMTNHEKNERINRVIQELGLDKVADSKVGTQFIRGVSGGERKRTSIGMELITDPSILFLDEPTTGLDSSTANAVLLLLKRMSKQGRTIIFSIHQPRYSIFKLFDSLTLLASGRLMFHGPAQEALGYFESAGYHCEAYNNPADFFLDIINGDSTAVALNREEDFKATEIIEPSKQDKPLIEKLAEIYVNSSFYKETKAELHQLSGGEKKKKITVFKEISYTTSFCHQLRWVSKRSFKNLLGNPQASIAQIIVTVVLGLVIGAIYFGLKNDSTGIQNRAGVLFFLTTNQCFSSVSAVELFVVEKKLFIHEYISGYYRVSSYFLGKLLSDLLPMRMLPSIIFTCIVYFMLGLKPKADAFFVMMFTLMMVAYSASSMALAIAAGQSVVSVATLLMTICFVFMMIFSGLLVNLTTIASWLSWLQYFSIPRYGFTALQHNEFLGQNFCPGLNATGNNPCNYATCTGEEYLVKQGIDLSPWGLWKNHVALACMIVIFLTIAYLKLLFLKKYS

nine CYP isoforms = test: in vitro CYP inhibition; assay type: in vitro ADME; conditions: rank order and mechanistic static assessment

Chain of P-glycoprotein (P-gp) (P08183 whole entry): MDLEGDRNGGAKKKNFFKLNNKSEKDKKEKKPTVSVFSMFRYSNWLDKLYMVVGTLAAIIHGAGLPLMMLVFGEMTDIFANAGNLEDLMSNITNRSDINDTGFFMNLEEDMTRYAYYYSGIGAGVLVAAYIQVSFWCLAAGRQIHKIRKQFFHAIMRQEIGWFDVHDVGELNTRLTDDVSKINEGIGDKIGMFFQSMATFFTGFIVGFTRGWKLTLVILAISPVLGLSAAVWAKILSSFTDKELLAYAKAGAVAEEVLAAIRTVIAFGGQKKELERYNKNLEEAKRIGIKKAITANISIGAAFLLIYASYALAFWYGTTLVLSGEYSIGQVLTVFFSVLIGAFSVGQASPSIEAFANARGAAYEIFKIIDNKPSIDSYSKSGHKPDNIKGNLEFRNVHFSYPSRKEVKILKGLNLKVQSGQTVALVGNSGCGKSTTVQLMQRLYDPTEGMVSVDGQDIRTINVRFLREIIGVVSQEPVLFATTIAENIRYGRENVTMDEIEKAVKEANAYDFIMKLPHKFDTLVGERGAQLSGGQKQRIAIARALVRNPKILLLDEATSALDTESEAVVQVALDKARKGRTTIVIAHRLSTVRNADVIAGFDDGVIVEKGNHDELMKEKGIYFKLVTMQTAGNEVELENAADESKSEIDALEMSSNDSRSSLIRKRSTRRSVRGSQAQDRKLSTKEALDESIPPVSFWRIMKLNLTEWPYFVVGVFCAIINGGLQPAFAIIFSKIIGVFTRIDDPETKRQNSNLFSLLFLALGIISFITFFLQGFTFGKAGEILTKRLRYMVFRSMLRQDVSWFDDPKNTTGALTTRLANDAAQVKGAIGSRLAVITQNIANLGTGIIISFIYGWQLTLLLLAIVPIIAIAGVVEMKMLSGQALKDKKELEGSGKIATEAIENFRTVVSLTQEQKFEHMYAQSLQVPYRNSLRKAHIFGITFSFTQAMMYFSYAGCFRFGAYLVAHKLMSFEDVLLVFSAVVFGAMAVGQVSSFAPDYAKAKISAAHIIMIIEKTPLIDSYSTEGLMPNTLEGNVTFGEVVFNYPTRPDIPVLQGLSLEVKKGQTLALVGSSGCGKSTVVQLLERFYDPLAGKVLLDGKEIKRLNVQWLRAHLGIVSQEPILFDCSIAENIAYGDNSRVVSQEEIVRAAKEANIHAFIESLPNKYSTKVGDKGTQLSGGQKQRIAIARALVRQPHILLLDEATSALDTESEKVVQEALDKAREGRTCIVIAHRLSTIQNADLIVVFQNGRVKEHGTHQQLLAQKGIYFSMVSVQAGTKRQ

**Q.** Which results are given for `CC(O)c1cc(C(=O)N[C@@H](C)Cn2ccc(-c3ccc(C#N)c(Cl)c3)n2)[nH]n1` (stereo partly drawn) [Darolutamide]?
**A.** inhibition of OATP1B1-mediated transport [1]: observed; induction of CYP2B6 activity (CYP2B6): no relevant induction; interconversion of the diastereoisomers (S,R)- and (S,S)- via keto-darolutamide [2]: Rapid interconversion; substrate for P-gp (P-glycoprotein (P-gp)): substrate; agonist activity with AR overexpression [3]: lacks the partial agonist activity; major metabolites observed in plasma [4]: Only one major metabolite, keto-darolutamide; binding affinity to the AR (AR): greater affinity than bicalutamide; also recorded: high affinity; metastatic free survival (MFS) (nmCRPC): significantly increased; overall survival (OS) (nmCRPC): significantly increased; tumor regression ([5]; non-castrate hormone-sensitive and bicalutamide-resistant human prostate cancer xenograft models): partial or complete tumor regression; prostate tumor progression ([5]; several cell line- and patient derived models): inhibits prostate tumor progression; effect of co-administration on CYP3A4/P-gp substrates ([6]; Phase I): no effect or only minor effects; increase of rosuvastatin exposure with darolutamide ([6]; because of BCRP and probably also OATPB1/OATPB3 inhibition): 5.2 fold; increase of darolutamide exposure ([6]; co-administered itraconazole, Phase I): 1.75 fold; decrease of darolutamide exposure ([6]; with rifampicin, Phase I): 72%; inhibition of OAT3-mediated transport [7]: observed; substrate for BCRP [8]: substrate; risk of clinically relevant DDIs via CYP inhibition (nine CYP isoforms): very low
